Tests used:
[1] = target: T1, KRAS G12D and SOS1 proteins (Homo sapiens, UniProt Q07889); assay: KRAS-G12D/SOS1 binding assay (HTRF); conditions: Tag1-SOS1 / Tag2-KRAS G12D, 10 μM GTP
T1 construct: purchased Cisbio 63ADK000CB17PEG
T1 sequence (Q07889 1-1333): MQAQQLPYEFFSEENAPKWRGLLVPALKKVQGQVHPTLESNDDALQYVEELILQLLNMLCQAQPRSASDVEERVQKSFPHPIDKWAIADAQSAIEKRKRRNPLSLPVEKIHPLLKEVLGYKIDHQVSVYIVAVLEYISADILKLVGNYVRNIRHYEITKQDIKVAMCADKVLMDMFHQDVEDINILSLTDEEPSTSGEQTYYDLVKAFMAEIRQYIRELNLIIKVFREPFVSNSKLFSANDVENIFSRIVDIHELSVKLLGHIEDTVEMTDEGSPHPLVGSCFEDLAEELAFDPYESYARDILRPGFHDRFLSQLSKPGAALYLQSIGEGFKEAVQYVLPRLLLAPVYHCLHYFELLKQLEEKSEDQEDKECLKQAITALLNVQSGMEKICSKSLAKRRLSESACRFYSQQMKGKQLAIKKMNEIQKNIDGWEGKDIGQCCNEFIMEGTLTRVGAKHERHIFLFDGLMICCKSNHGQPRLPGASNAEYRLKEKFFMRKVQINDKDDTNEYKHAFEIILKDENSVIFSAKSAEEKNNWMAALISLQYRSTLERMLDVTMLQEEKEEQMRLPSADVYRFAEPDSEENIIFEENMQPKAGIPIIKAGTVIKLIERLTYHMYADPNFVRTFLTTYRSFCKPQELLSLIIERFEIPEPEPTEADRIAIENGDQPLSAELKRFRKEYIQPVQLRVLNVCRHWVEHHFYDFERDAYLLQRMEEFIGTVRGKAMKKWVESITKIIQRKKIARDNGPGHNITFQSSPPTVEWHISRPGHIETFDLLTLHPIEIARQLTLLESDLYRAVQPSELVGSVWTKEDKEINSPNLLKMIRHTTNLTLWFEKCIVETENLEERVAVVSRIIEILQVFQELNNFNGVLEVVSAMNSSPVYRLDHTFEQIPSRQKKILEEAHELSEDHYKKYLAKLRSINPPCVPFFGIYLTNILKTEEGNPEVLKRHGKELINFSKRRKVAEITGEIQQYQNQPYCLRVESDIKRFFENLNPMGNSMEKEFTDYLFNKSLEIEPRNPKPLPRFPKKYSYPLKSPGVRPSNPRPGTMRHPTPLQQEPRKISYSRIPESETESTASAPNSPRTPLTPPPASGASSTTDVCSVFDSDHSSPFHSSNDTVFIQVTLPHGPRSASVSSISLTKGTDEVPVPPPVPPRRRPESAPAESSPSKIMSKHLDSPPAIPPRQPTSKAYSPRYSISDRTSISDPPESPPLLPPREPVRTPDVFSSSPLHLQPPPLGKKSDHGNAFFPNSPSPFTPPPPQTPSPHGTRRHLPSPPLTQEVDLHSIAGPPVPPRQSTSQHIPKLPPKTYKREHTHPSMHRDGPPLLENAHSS

[2] = target: T2, KRAS-WT and SOS1 proteins (Homo sapiens, UniProt Q07889); assay: KRAS-WT/SOS1 binding assay (HTRF); conditions: Tag1-SOS1 / Tag2-KRAS-WT, 10 μM GTP, read-out: Activity Data in Kras: SOS1 Assay, Wild Type
T2 construct: purchased Cisbio 63ADK000CB15PEG
T2 sequence (Q07889 1-1333): T1 sequence (Q07889 1-1333)

[3] = target: T3, KRAS G12C and SOS1 proteins (Homo sapiens, UniProt Q07889); assay: KRAS-G12C/SOS1 binding assay (HTRF); conditions: Tag1-SOS1 / Tag2-KRAS G12C, 10 μM GTP
T3 construct: purchased Cisbio 63ADK000CB16PEG
T3 sequence (Q07889 1-1333): T1 sequence (Q07889 1-1333)
Procedure: KRAS-WT (or G12C/G12D/G12V)/SOS1 Binding Assay
Low IC50 values are indicative of high potency of the SOS1 inhibitor compounds in this assay setting.
The KRAS-WT (or G12C/G12D/G12V)/SOS1 binding assay is performed using an assay kit (Cisbio, Cat #63ADK000CB15PEG or 63ADK000CB16PEG/63ADK000CB17PEG/63ADK000CB18PEG) according to the procedure recommended by the manufacturer. • 1) Thaw and prepare the working solution of Tag1-SOS1 protein and Tag2-KRAS-WT (or G12C/G12D/G12V) protein with final concentration of 10 μM GTP (Sigma, Cat #V900868). • 2) Thaw and prepare the working solution of anti-Tag1-Tb^3+ anti-Tag2-XL665. • 3) Dispense 2 μL of serially diluted compound, 4 μL of Tag1-SOS1 protein and 4 μL of Tag2-KRAS-WT (or G12C/G12D/G12V) protein with GTP into a ProxiPlate-384 Plus, white 384-shallow well microplate (PerkinElmer, Cat #6008280). • 4) Incubate the plate for 15 minutes at room temperature. • 5) Dispense 10 μL of pre-mixed anti-Tag1-Tb^3+ and anti-Tag2-XL665 into the plate. • 6) Seal the plate and incubate for 2 hours at room temperature. • 7) Remove the plate sealer and read on PHERAstar FS (BMG LABTECH, PHERAstar FS). • 8) Calculate the ratio of the acceptor and donor emission signals for each individual well using the following equation.
[formula] • 9) IC50 values are fitted and calculated by HTRF signal values and log of compound concentrations to nonlinear regression [Log (inhibitor) vs. Response−Variable Slope (four parameters)] using the GraphPad Prism 8.0.

Row | SMILES | IC50 [1] | IC50 [2] | IC50 [3]
1 | COc1cc2c(cc1C1CCOCC1)c(N[C@H](C)c1cccc(C(F)F)c1F)nc1ccnn12 [Example 47, (R)-N-(1-(3-(difluoromethyl)-2-fluorophenyl)ethyl)-8-methoxy-7-(tetrahydro-2H-pyran-4-yl)pyrazolo[1,5-a]quinazolin-5-amine] | 500 to 5000 nM | 100 to 500 nM | 500 to 5000 nM
2 | C[C@@H](Nc1nc2ccnn2c2cc(=O)n(C3CCOCC3)cc12)c1cccc(C(F)(F)CO)c1 [Example 60, (R)-5-((1-(3-(1,1-difluoro-2-hydroxyethyl)phenyl)ethyl)amino)-7-(tetrahydro-2H-pyran-4-yl)pyrazolo[1,5-a]pyrido[3,4-e]pyrimidin-8(7H)-one] | < 100 nM | < 100 nM | < 100 nM
3 | Cc1nc(N[C@H](C)c2cccc(C(F)(F)CO)c2)c2cc(C3CCOCC3)c3nncn3c2n1 [Example 2, (R)-2,2-difluoro-2-(3-(1-((2-methyl-6-(tetrahydro-2H-pyran-4-yl)-[1,2,4]triazolo[4′,3′:1,6]pyrido[2,3-d]pyrimidin-4-yl)amino)ethyl)phenyl)ethanol] | < 100 nM | – | < 100 nM
4 | COc1cc2c(cc1C1CCOCC1)c(N[C@H](C)c1cccc(C(F)(F)CO)c1)nc1ccnn12 [Example 51, (R)-2,2-difluoro-2-(3-(1-((8-methoxy-7-(tetrahydro-2H-pyran-4-yl)pyrazolo[1,5-a]quinazolin-5-yl)amino)ethyl)phenyl)ethanol] | 100 to 500 nM | 100 to 500 nM | 100 to 500 nM
5 | COc1cc2c(cc1-c1ccc(=O)n(C)c1)c(N[C@H](C)c1cccc3c1CCC3(F)F)nc1ccnn12 [Example 46, (R)-5-(5-((1-(1,1-difluoro-2,3-dihydro-1H-inden-4-yl)ethyl)amino)-8-methoxypyrazolo[1,5-a]quinazolin-7-y1)-1-methylpyridin-2(1H)-one] | 100 to 500 nM | < 100 nM | 100 to 500 nM
6 | COc1cc2c(cc1-c1ccc(=O)n(C)c1)c(N[C@H](C)c1cccc(C(F)(F)CO)c1)nc1ccnn12 [Example 45, (R)-5-(5-((1-(3-(1,1-difluoro-2-hydroxyethyl)phenyl)ethyl)amino)-8-methoxypyrazolo[1,5-a]quinazolin-7-yl)-1-methylpyridin-2(1H)-one] | < 100 nM | < 100 nM | 100 to 500 nM

— patent US20240109891A1, “NOVEL SUBSTITUTED TRICYCLIC AZA-HETEROCYCLES AS SOS1 INHIBITORS” (Viva Star Biosciences (Suzhou) Co., Ltd., priority 2021, published 2024)
